# Test results from patent US20130210625A1, “SPIROHETEROCYCLIC PYRROLIDINE DERIVATIVES BASED PESTICIDES” (SYNGENTA CROP PROTECTION LLC, priority 2010, published 2013).
# Tests used:
# [1] = system: Myzus persicae (Green Peach Aphid); assay: Activity against Myzus persicae, mixed population, feeding/residual contact activity, preventive (Example B1); format: in vivo; design: concentration or dose not given beside the values; conditions: foliar, 144 h, sunflower leaf discs sprayed, mortality checked after 6 days
# Experimental: Activity Against Myzus persicae (Green Peach Aphid) (Mixed Population, Feeding/Residual Contact Activity, Preventive)
# Sunflower leaf discs are placed on agar in a 24-well microtiter plate and sprayed with test solutions. After drying, the leaf discs are infested with an aphid population of mixed ages. After an incubation period of 6 days, samples are checked for mortality and special effects (e.g. phytotoxicity).
# [2] = system: Myzus persicae (Green Peach Aphid); assay: Activity against Myzus persicae, mixed population, systemic/feeding activity, curative (Example B2); format: in vivo; conditions: 144 h, roots of infested pea seedlings in test solution, mortality 6 days after introduction
# Excerpt: Activity Against Myzus persicae (Green Peach Aphid) (Mixed Population, Systemic/Feeding Activity, Curative)
# Roots of pea seedlings, infested with an aphid population of mixed ages, are placed directly in the test solutions. 6 days after introduction, samples are checked for mortality and special effects on the plant.
# [3] = system: Myzus persicae (Green Peach Aphid); assay: Activity against Myzus persicae on cabbage plants, feeding/residual contact activity (Example B5); format: in vivo; conditions: 144 h, infested cabbage plants, spray chamber, mortality 6 days after treatment
# Experimental: Activity Against Myzus persicae (Green Peach Aphid) (Mixed Population, Feeding/Residual Contact Activity, Plant Damage Evaluation)
# Cabbage plants infested with a mixed population of Myzus persicae are treated with diluted test solutions of the compounds in a spray chamber. 6 days after treatment, samples are checked for mortality and for plant damage (phytotoxicity), visual assessment being made using a 0-100% rating scale (100%=total damage to plant; 0%=no damage to plant).
# [4] = system: Tetranychus urticae (Two-Spotted Spider Mite); assay: Activity against Tetranychus urticae, mixed population, feeding/residual contact activity, preventive (Example B4); format: in vivo; conditions: foliar, 192 h, bean leaf discs sprayed, egg, larval and adult mortality 8 days later
# Excerpt: Activity Against Tetranychus urticae (Two-Spotted Spider Mite) (Mixed Population, Feeding/Residual Contact Activity, Preventive)
# Bean leaf discs on agar in 24-well microtiter plates are sprayed with test solutions. After drying, the leaf discs are infested with mite populations of mixed ages. 8 days later, discs are checked for egg mortality, larval mortality, and adult mortality.
# [5] = system: Aphis craccivora (Cowpea Aphid); assay: Activity against Aphis craccivora, mixed population, contact/feeding (Example B9); format: in vivo; conditions: 200 ppm; infested pea seedlings, spray chamber; mortality 6 days after treatment
# Experimental: Activity Against Aphis craccivora (Cowpea Aphid) (Mixed Population, Contact/Feeding)
# Pea seedlings, infested with an aphid population of mixed ages, are treated (2 replicates) with diluted test solutions in a spray chamber. 6 days after treatment, samples are checked for mortality.
melting point [°C],SMILES,pest or weed control [1] [%],pest or weed control at 400 ppm [2] [%],pest or weed control at 200 ppm [3] [%],pest or weed control at 400 ppm [4] [%],activity [5]
185 to 187,CCOC(=O)OC1=C(c2cc(C(C)=O)ccc2C)C(=O)NC12CCN(OC)CC2 [Compound P1.2],,,,,
,C#Cc1cc(C)cc(C)c1C1=C(OC(=O)OCC)C2(CCN(OC)CC2)NC1=O [Compound P1.7],> 80,> 80,≥ 80,> 80,
,"CC#Cc1cc(C)c(C2=C(O)C3(CCN(OC)CC3)N(C)C2=O)c(C)c1 [Compound P2.13, 3-(2,6-Dimethyl-4-prop-1-ynyl-phenyl)-4-hydroxy-8-methoxy-1-methyl-1,8-diaza-spiro[4.5]dec-3-en-2-one]",,,≥ 80,,
,"C=Cc1cc(C)cc(C)c1C1=C(O)C2(CCN(OC)CC2)N(C)C1=O [Compound P2.4, 3-(2,4-Dimethyl-6-vinyl-phenyl)-4-hydroxy-8-methoxy-1-methyl-1,8-diaza-spiro[4.5]dec-3-en-2-one]",,,≥ 80,,
,C#Cc1ccc(C)cc1C1=C(OC(=O)OCC)C2(CCN(OC)CC2)N(OC)C1=O [Compound P1.11],> 80,,≥ 80,> 80,
,C#Cc1cc(C)cc(C)c1C1C(=O)N(OC2CCCO2)C2(CCN(OC)CC2)C1=O (stereo not shown) [Compound P2.8],> 80,> 80,≥ 80,> 80,
,C=Cc1cc(C)c(C2=C(OC(=O)OCC)C3(CCN(OC)CC3)N(C)C2=O)c(C)c1 [Compound P1.6],,,≥ 80,,over 80%
,"C=Cc1cc(C)cc(C)c1C1=C(O)C2(CCN(OC)CC2)NC1=O [Compound P2.3, 3-(2,4-Dimethyl-6-vinyl-phenyl)-4-hydroxy-8-methoxy-1,8-diaza-spiro[4.5]dec-3-en-2-one]",> 80,,≥ 80,> 80,
,C#Cc1cc(C)cc(C)c1C1C(=O)NC2(CCN(OC)CC2)C1=O (stereo not shown) [Compound P2.6],> 80,> 80,≥ 80,> 80,
245 to 247,COC(=O)c1ccc(C)c(C2C(=O)NC3(CCN(OC)CC3)C2=O)c1 (stereo not shown) [Compound P2.2],,,,,
218 to 220,CON1CCC2(CC1)NC(=O)C(c1cc(C(C)=O)ccc1C)C2=O (stereo not shown) [Compound P2.1],,,,,
,"C#Cc1cc(C)c(C2=C(O)C3(CCN(OC)CC3)N(C)C2=O)c(C)c1 [Compound P2.12, 3-(4-Ethynyl-2,6-dimethyl-phenyl)-4-hydroxy-8-methoxy-1-methyl-1,8-diaza-spiro[4.5]dec-3-en-2-one]",> 80,> 80,≥ 80,,
,C#Cc1cc(C)cc(C)c1C1=C(OC(=O)OCC)C2(CCN(OC)CC2)N(OC2CCCO2)C1=O (stereo not shown) [Compound P1.9],> 80,> 80,≥ 80,> 80,
,"C=Cc1cc(C)cc(C)c1C1=C(O)C2(CCN(OC)CC2)N(OC2CCCO2)C1=O (stereo not shown) [Compound P2.5, 3-(2,4-Dimethyl-6-vinyl-phenyl)-4-hydroxy-8-methoxy-1-(tetrahydro-furan-2-yloxy)-1,8-diaza-spiro[4.5]dec-3-en-2-one]",,,≥ 80,,
,C#Cc1cc(C)c(C2C(=O)NC3(CCN(OC)CC3)C2=O)c(C)c1 (stereo not shown) [Compound P2.11],> 80,> 80,≥ 80,,
,C#Cc1cc(C)c(C2=C(OC(=O)OCC)C3(CCN(OC)CC3)N(C)C2=O)c(C)c1 [Compound P1.13],> 80,> 80,≥ 80,,
,C#Cc1cc(C)cc(C)c1C1C(=O)N(C)C2(CCN(OC)CC2)C1=O (stereo not shown) [Compound P2.7],> 80,,≥ 80,> 80,
,C#Cc1ccc(C)cc1C1=C(OC(=O)OCC)C2(CCN(OC)CC2)NC1=O [Compound P1.10],,,≥ 80,,
,C=Cc1cc(C)cc(C)c1C1=C(OC(=O)OCC)C2(CCN(OC)CC2)NC1=O [Compound P1.3],> 80,> 80,≥ 80,> 80,
,C#Cc1ccc(C)cc1C1C(=O)N(OC)C2(CCN(OC)CC2)C1=O (stereo not shown) [Compound P2.10],,,≥ 80,,
,"C=Cc1cc(C)cc(C)c1C1=C(OC(=O)OCC)C2(CCN(OC)CC2)N(OC2CCCO2)C1=O (stereo not shown) [Compound P1.5, Carbonic acid 3-(2,4-dimethyl-6-vinyl-phenyl)-8-methoxy-2-oxo-1-(tetrahydro-furan-2-yloxy)-1,8-diaza-spiro[4.5]dec-3-en-4-yl ester ethyl ester]",> 80,,≥ 80,> 80,
,CC#Cc1cc(C)c(C2=C(OC(=O)OCC)C3(CCN(OC)CC3)N(C)C2=O)c(C)c1 [Compound P1.14],,> 80,≥ 80,> 80,
,C#Cc1cc(C)c(C2=C(OC(=O)OCC)C3(CCN(OC)CC3)NC2=O)c(C)c1 [Compound P1.12],> 80,> 80,≥ 80,,
,C#Cc1cc(C)cc(C)c1C1=C(OC(=O)OCC)C2(CCN(OC)CC2)N(C)C1=O [Compound P1.8],> 80,> 80,≥ 80,> 80,
,C=Cc1cc(C)cc(C)c1C1=C(OC(=O)OCC)C2(CCN(OC)CC2)N(C)C1=O [Compound P1.4],> 80,,≥ 80,> 80,
